Data published in PMC2898662, “Midkine inhibitors: application of a simple assay procedure to screening of inhibitory compounds” (International Archives of Medicine, 2010).
Ends that are not written are not given here. Peptide text beside a SMILES is read from it.

Columns and labels:
[1] = target: T1, midkine (Homo sapiens, UniProt P21741); assay: Midkine activity: midkine-dependent migration of UMR106 cells (Chemotaxicell); format: cell-based; settings: filter coated with 20 μg/ml midkine, 4 h, OD 590 nm
T1 construct: made in house; host or cells: yeast
T1 sequence (P21741 23-143 limits assumed): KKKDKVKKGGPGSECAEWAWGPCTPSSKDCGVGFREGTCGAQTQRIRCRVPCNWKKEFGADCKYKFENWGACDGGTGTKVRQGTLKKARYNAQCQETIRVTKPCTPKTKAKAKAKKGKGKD
Description: Midkine activity was determined by promotion of migration of UMR106 (ATTC No. 1661) cells. Chemotaxicell (pore size 8 micron, Kurabo Industries Ltd., Japan) was coated with 20 μg/ml of midkine at the lower surface of the filter for 1 h, and washed with Dulbecco's phosphate-buffered saline (PBS) twice. UMR106 cells (2 × 10^5 cells in 0.2 ml of Dulbecco's modified Eagle's medium with 0.3% bovine serum albumin) were added to the upper chamber. The lower chamber contained 0.5 ml of the same medium. Cells were cultured for 4 h. The inner Chemotaxicell was cleaned with PBS, and cells were fixed with 100% methanol at room temperature for 20 min. The inner cell was cleaned with cotton bar, and the migrated cells were stained with 1% crystal violet at room temperature for 30 min., and were washed with H2O. The cells were extracted with 0.2 ml of 1% SDS with 1% Triton X-100 for 1 h upon agitation. Then extract of 0.15 ml was transferred to a 96 well plate and OD 590 nm was determined. Upon inhibition assay using low molecular weight compounds, they were dissolved in ethanol and were added to the lower chamber so that the final ethanol concentration was 2%. The control contained also 2% ethanol in this occasion. Inhibition assay using peptides was performed by adding them dissolved in H2O. Assay was done in duplicate.

[2] = system: UMR106 cells; assay: Toxicity to UMR106 target cells in culture
Description: These 10 compounds were surveyed for the activity to inhibit midkine activity.

[3] = target: T1, midkine; assay: Binding activity to midkine by surface plasmon assay (BIACORE 3000); settings: BIACORE 3000, midkine immobilised on CM5 chip; peptides 5 μg/ml in 10 mM HEPES-NaOH pH 7.4, 0.15 M NaCl, 0.0005% Tween 20; 25°C; read-out: Binding constant to midkine
Description: Binding activity to midkine was evaluated in the BIACORE 3000 System (GE Healthcare, UK Ltd). A CM5 sensor chip coated with carboxymethyldextran was activated by injecting a solution (1:1) of 200 mM N-ethyl-N'-(3-dimethylaminopropyl) carbodiimide hydrochloride and 100 mM N-hydroxysuccinimide at a flow rate of 10 μl/min. A 70 μl aliquot of midkine solution (50 μg/ml in 10 mM acetate buffer, pH 5.0) was injected for immobilization. The remaining activated N-hydroxysuccinimide ester groups were blocked by injecting 1 M ethanolamine hydrochloride/NaOH, pH 8.5, and washed with 10 μl of 1 M NaCl. Peptides (5 μg/ml) in the running buffer (10 mM HEPES-NaOH, pH 7.4, containing 0.15 M NaCl and 0.0005% Tween 20) were injected into the flow cell, and the change in resonance units was recorded. Binding assays were performed at 25°C with a constant flow rate of […] in both association and dissociation phases.

[4] = peptide 1 mg/ml in lower chamber, dissolved in H2O, control without material = 100, duplicate
[5] = peptide added to culture of UMR106 cells at 1 mg/ml

Question: `CC1CCCC(C)N1c1nc(-c2cccs2)cc(C(F)(F)F)n1` (stereo not shown) [Compound I, 2-(2,6-dimethylpiperidin-1-yl)-4-thiophen-2-yl-6-(trifluoromethy)pyrimidine] was tested. Which “Migration activity (%)” value ([1]; compound 0.146 mg/ml in lower chamber, 2% ethanol, control = 100, duplicate) did it give?
Answer: 43.8 ± 10.2%

Question: And the “Toxicity to the target cells” value ([2]; at the concentration used for the migration assay (Compound I 0.146 mg/ml, Compound II 0.10 mg/ml))?
Answer: no toxicity

Question: With `CC[C@H](C)[C@H](NC(=O)[C@H](CS)NC(=O)[C@H](CCC(=O)O)NC(=O)CNC(=O)[C@H](CS)NC(=O)[C@H](CO)NC(=O)[C@H](CCCCN)NC(=O)[C@H](C)NC(=O)[C@H](CC(N)=O)NC(=O)[C@H](C)NC(=O)[C@@H](N)CCCCN)C(=O)O` [KA11] (H-KANAKSCGECI-OH) as the compound, how does the Kd [3] read?
Answer: 0.27 µM

Question: And the “Migration activity (%)” value [1, 4]?
Answer: 43.7 ± 12.8%

Question: What about the “Toxicity to UMR106 cells” value [2, 5] of the same compound?
Answer: no toxicity was observed

Question: Which results are given for AMETNLV [AM7]?
Answer: Kd [3]: 0.95 µM; Migration activity (%) [1, 4]: 99.5 ± 6.9%

Question: For “GTGTKVRQGTL [GT11, midkine-derived peptide … from β-sheet of C-terminal half]”, which “Migration activity (%)” value [1, 4] is on record?
Answer: 156 ± 6%

Question: IENPRGSKDIKKNKN [IE15] was tested. Which Kd [3] did it give?
Answer: 0.3 µM

Question: What about the “Migration activity (%)” value [1, 4] of the same compound?
Answer: 113 ± 10.1%

Question: How did the Kd [3] turn out when KQNQVKFGS [KQ9] was run?
Answer: 0.2 µM

Question: What about the “Migration activity (%)” value [1, 4] of the same compound?
Answer: 107 ± 15%

Question: How did the Kd [3] turn out when MQSTIRE [MQ7] was run?
Answer: 0.23 µM

Question: What about the “Migration activity (%)” value [1, 4] of the same compound?
Answer: 107 ± 2%

Question: With PAKLRNPCT [PA9] as the compound, how does the Kd [3] read?
Answer: 0.45 µM

Question: What about the “Migration activity (%)” value [1, 4] of the same compound?
Answer: 69.4 ± 46.1%

Question: How did the “Migration activity (%)” value [1, 4] turn out when “QETIRVTKPC [QE10, midkine-derived peptide … from β-sheet of C-terminal half]” was run?
Answer: 99.5 ± 10.6%

Question: Which results are given for TFSQRIEG [TF8]?
Answer: Kd [3]: 0.14 µM; Migration activity (%) [1, 4]: 105 ± 24%

Question: YKFENWGACDGG [YK12] was tested. Which “Migration activity (%)” value [1, 4] did it give?
Answer: 44.0 ± 10.5%

Question: What about the “Inhibition of cell-substratum adhesion of UMR106 cells” value [2, 5] of the same compound?
Answer: inhibition of cell-substratum adhesion was observed in a certain occasion

Question: And the “Toxicity to UMR106 cells” value [2, 5]?
Answer: no toxicity was observed
